Test results from patent publication US20240277692A1, “1,2-DIHYDROQUINOLINE-2-ONES FOR THEIR USE IN THE TREATMENT OF LIMB-GIRDLE MUSCULAR DYSTROPHY” (CONSEJO SUPERIOR DE INVESTIGACIONES CIENTÍFICAS, priority 2021, published 2024).

Experiments:
FRBZ gene, β1D integrin = settings: LiCl treatment, cited from earlier work
GSK3 [1] = settings: low therapeutic dose 0.5 mM, Kurgan et al. 2019; cited from earlier work
Akt/mTOR pathway = test: Western blot of Akt/mTOR pathway proteins in human myotubes; format: cell-based
Protocol: (§1) To obtain primary myoblasts, muscle biopsies were processed and cultured in monolayer according to the method described by Askanas (Neurology, 1975, 25, 58-67). To isolate the pure population of myoblasts and CD56-negative cells (CD56-), the protocol described previously (Jaka et al., Expert Reviews in Molecular Medicine, 2017, 19, e2) was used, using immunomagnetic separation based on the early presence of the surface marker CD56 (Miltenyi Biotec, 130-050-401).
(§2) Myoblasts were cultured in proliferation medium (DMEM, M-199, Insulin, Glutamine and penicillin-streptomycin) with 10% FBS and growth factors at 37° C. in 5% CO2 air incubator. When myoblasts reached confluence, the FBS concentration was reduced to 2% and growth factors were removed from the medium, promoting fusion and production of myotubes.
(§3) VP0.7 was provided by Dr. Ana Martínez (from The Center for Biological Research, CSIC). It was administered at 1.2 μM, whereas LiCl (Sigma-Aldrich, L7026) was used for comparative purposes at a final concentration of 10 mM. VP0.7 and LiCl were administered at the above referred concentrations to myotubes at eight days of differentiation, and VP0.7 also to skin fibroblasts and to CD56-cells. Negative controls, in the case of VP0.7, were performed with DMSO (Fisher Scientific, BP-231). At 48 hours after drug administration, RNA and proteins were extracted.
(§4) Protein collection from muscle samples and cell cultures, as well as Western blot procedure, were performed as previously described (Jaka et al., Expert Reviews in Molecular Medicine, 2017, 19, e2).
Furthermore, downstream of the mTOR pathway, the p70S6K and RPS6 proteins were analysed. After administration of VP0.7, the expression of total p70S6K, its phosphorylation (Thr421/Ser424 and Thr389), as well as the levels of phosphorylation of the RPS6 protein (Ser235/Ser236) increased in the patient's sample. In the control, the effect observed after the treatments is very slight (FIG. 3B).
For comparative purposes, LiCl was also administered in control and patient's myotubes and the phosphorylation of p70S6K and RPS6 proteins were also tested. The results are depicted in FIG. 4.

Wnt pathway [2] = test: Western blot of Wnt pathway proteins in human myotubes after drug administration; format: cell-based; settings: for active β-catenin: myotubes
Protocol: as §1, §2, §3, §4
We proceeded to analyse the expression of the GSK3β protein, as well as its downstream effect on the Wnt pathway in myotubes from controls and patients after drug administration. […] As a control assay, lithium was administered and an increase in active β-catenin was verified (FIG. 2C).

GSK3β = settings: low dose, Whitley et al. 2020, cited from earlier work
Wnt pathway [3] = test: Western blot of Wnt pathway proteins in CD56- cells; format: cell-based, human; settings: VP0.7 1.2 μM, 48 h
Text: as §1, §3, §4

Wnt pathway [4] = test: Western blot of Wnt pathway proteins in skin fibroblasts; format: cell-based, human; settings: VP0.7 1.2 μM, 48 h
Protocol: (§5) Skin fibroblasts from healthy controls and from LGMDR1 patients were provided by Dr. Ana Aiastui (Biodonostia Health Research Institute, Cell Culture and Histology Platform). Cells were cultured in Dulbecco's modified Eagle's medium (DMEM, Gibco, 41966-029) supplemented with 10% FBS (Gibco, 10270-106) and 1% penicillin-streptomycin (Gibco, 15140-122) at 37° C. in a 5% CO2 air incubator. Human fibroblasts were cultured at a density of 4×10^4 cells/ml.
as §3, §4

mTOR pathway [5] = test: Western blot of mTOR pathway proteins in CD56- cells; format: cell-based, human; settings: VP0.7 1.2 μM, 48 h
Text: as §1, §3, §4

integrin β1D and melusin = test: Western blot of costamere structural proteins in human myotubes; format: cell-based; settings: VP0.7 1.2 μM, 48 h
Protocol: as §3, §4
Likewise, the expression of some of the structural proteins that are part of the costamere, whose expression is altered in LGMDR1 patients, was analysed. After drug administration, an increase in integrin β1D and melusin was also observed (FIG. 2E).

mTOR pathway [6] = test: Western blot of mTOR pathway protein in skin fibroblasts; format: cell-based, human; settings: VP0.7 1.2 μM, 48 h
Protocol: as §5, §3, §4

GSK3 [7] = molecular target: GSK3 (Homo sapiens, UniProt P49841); settings: highly selective and allosteric modulator; Luna-Medina 2007, Palomo 2011; cited from earlier work
GSK3 (Homo sapiens, UniProt P49841), sequence (P49841 whole entry): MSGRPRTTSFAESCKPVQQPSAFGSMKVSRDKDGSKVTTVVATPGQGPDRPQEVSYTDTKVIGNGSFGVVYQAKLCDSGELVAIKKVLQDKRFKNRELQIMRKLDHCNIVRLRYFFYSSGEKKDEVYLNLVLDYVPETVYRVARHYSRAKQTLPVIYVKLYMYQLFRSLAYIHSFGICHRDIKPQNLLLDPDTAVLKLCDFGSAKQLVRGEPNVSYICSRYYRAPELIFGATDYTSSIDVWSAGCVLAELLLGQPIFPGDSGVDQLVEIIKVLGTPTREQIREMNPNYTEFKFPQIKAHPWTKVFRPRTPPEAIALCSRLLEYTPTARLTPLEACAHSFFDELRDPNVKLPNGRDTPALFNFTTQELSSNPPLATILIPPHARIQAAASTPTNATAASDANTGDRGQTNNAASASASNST

[8] = tested on: CAPN3, FOS, ANOS1 and ITGB1BP2 genes; test: Quantitative real-time PCR of deregulated genes in LGMDR1 myotubes; format: cell-based, human; settings: VP0.7 1.2 μM, 48 h
Protocol: as §3
RNA extraction from primary myoblast/myotubes was performed with an RNeasy Mini Kit (Qiagen). In the case of the muscle biopsies, which were snap frozen and stored at −80° C. until use, total RNA was obtained using an RNA-Plus Kit (QBiogene).
The isolated RNA was reverse-transcribed to first-strand complementary DNA (cDNA) in a final volume of 50 μl using a High Capacity cDNA Reverse Transcription Kit (Applied Biosystems), according to the manufacturer's instructions. The expression levels of CAPN3, FOS, ITGB1BP2, ANOS1 and GAPDH genes in the samples were assessed by real-time quantitative PCR with TaqMan probes (Table Il below) using the ‘CFX384 Real-Time PCR Detection System’ (Bio-Rad).
On the other hand, in previous studies we had already described that activating the Wnt pathway through the silencing of the FRZB gene or with treatment with lithium, the expression of some altered genes in the muscle of patients was recovered (Jaka et al., Expert Reviews in Molecular Medicine, 2017, 19, e2; Casas-Fraile et al., Orphanet Journal of Rare Diseases, 2020, 15(1), 119). Thus, their expression was analysed after administering VP0.7.

[9] = LiCl 10 mM, drug administration +, myotubes, control 09-23
[10] = LiCl 10 mM, drug administration +, myotubes, control 13-07
[11] = LiCl 10 mM, drug administration +, myotubes, patient 09-21
[12] = LiCl 10 mM, drug administration +, myotubes, patient 09-24
[13] = LiCl 10 mM, drug administration +, myotubes, patient 09-25
[14] = VP0.7 1.2 μM, 48 h, patient's myotubes
[15] = VP0.7 1.2 μM, 48 h, patient's sample, myotubes
[16] = VP0.7 1.2 μM, myotubes, control 13-05, relative to the same sample without treatment
[17] = VP0.7 1.2 μM, myotubes, patient 09-25, relative to the same sample without treatment

SMILES: [Cl-].[Li+] [LiCl, reference compound]
- expression of the FRBZ gene (FRBZ gene, β1D integrin; Jaka et al. 2017): lower levels
- β1D adult isoform of the integrin (FRBZ gene, β1D integrin; primary myotubes): higher levels
- inhibition of GSK3 (GSK3 [1]): inhibit
- myoblast fusion (GSK3 [1]): augment
- proteins involved in the mTOR pathway and their phosphorylation forms (Akt/mTOR pathway; LiCl 10 mM, 48 h, control and patient's myotubes): did not provide any increase
- P-RPS6 (S235-S236) (Akt/mTOR pathway; [9]): 3.8
- P-p70S6K (T421-S424) (Akt/mTOR pathway; [9]): 0.78
- P-RPS6 (S235-S236) (Akt/mTOR pathway; [10]): 3
- P-p70S6K (T421-S424) (Akt/mTOR pathway; [10]): 0.7
- P-RPS6 (S235-S236) (Akt/mTOR pathway; [11]): 1.5
- P-p70S6K (T421-S424) (Akt/mTOR pathway; [11]): 0.5
- P-RPS6 (S235-S236) (Akt/mTOR pathway; [12]): 3
- P-p70S6K (T421-S424) (Akt/mTOR pathway; [12]): 1.4
- P-RPS6 (S235-S236) (Akt/mTOR pathway; [13]): 2.5
- P-p70S6K (T421-S424) (Akt/mTOR pathway; [13]): 0.65
- active β-catenin (Wnt pathway [2]; LiCl 10 mM, 48 h, control assay): increase
- inhibition of GSK3β (GSK3β): effective in inhibiting
- fatigue resistance in some muscles (GSK3β; via NFAT activation): enhances

SMILES: CCCCCCCCCCCC(=O)NNC(=O)c1c(O)c2ccccc2n(CC)c1=O [VP0.7, N′-dodecanoyl-1-ethyl-4-hydroxy-2-oxo-1,2-dihydroquinoline-3-carbohydrazide]
- active form of β-catenin (Wnt pathway [3]): no significant alteration
- amount of total β-catenin (Wnt pathway [3]): no significant alteration
- effect on p70S6K and RPS6 expression/phosphorylation (Akt/mTOR pathway; VP0.7 1.2 μM, 48 h, control myotubes): very slight
- phosphorylation of mTOR (Ser2448) (Akt/mTOR pathway; [14]): significant increase
- phosphorylation of mTOR (Ser2481) (Akt/mTOR pathway; [14]): significant increase
- total mTOR (Akt/mTOR pathway; [14]): no significant changes
- expression of total p70S6K (Akt/mTOR pathway; [15]): increased
- p70S6K phosphorylation (Thr389) (Akt/mTOR pathway; [15]): increased
- p70S6K phosphorylation (Thr421/Ser424) (Akt/mTOR pathway; [15]): increased
- phosphorylation of the RPS6 protein (Ser235/Ser236) (Akt/mTOR pathway; [15]): increased
- P-p70S6K (T421-S424) (Akt/mTOR pathway; VP0.7 1.2 μM, myotubes, control 13-05, protein expression value relative to the same sample without treatment): 1
- P-RPS6 (S235-S236) (Akt/mTOR pathway; [16]): 1.1
- P-p70S6K (T389) (Akt/mTOR pathway; [16]): 0.94
- P-p70S6K (T421-S424) (Akt/mTOR pathway; VP0.7 1.2 μM, myotubes, patient 09-25, protein expression value relative to the same sample without treatment): 1.6
- P-RPS6 (S235-S236) (Akt/mTOR pathway; [17]): 2.8
- P-p70S6K (T389) (Akt/mTOR pathway; [17]): 1.6
- total β-catenin expression (Wnt pathway [2]; VP0.7 1.2 μM, 48 h, myotubes day 8 of differentiation, controls and LGMDR1 patients): increase
- active β-catenin (Wnt pathway [2]; VP0.7 1.2 μM, 48 h, controls and LGMDR1 patients): increase
- inhibition of GSK3β kinase (Wnt pathway [2]; myotubes after drug administration): effective inhibition
- active form of β-catenin (Wnt pathway [4]): did not show an increase
- phosphorylation of GSK3β(Ser9) (Wnt pathway [4]): did not show an increase
- β-catenin (Wnt pathway [4]): did not show an increase
- mTOR (mTOR pathway [5]): no differences
- phosphorylation of RPS6 (mTOR pathway [5]): no differences
- phosphorylation of p70S6K (mTOR pathway [5]): no differences
- integrin β1D (integrin β1D and melusin): increase
- melusin (integrin β1D and melusin): increase
- phosphorylation of RPS6 (mTOR pathway [6]): very slight increase
- inhibition of GSK3 (GSK3 [7]): reversibly inhibits
- expression of ANOS1 [8]: increase
- expression of CAPN3 [8]: increase
- expression of FOS [8]: increase
- expression of ITGB1BP2 [8]: increase
